“Also recorded” adds a separate entry of the source.
Legend:
Type in all cases: in vivo
[1] = tested on: Contig4405_x_at PATHOGENESIS-RELATED PROTEIN PR-10A; assay: DNA chip expression analysis of barley leaves after soil treatment; conditions: 10 mg per plant to soil
Procedure: (§1) Barley seeds (of the Baroness variety) were sown in pots containing soil about 2 cm deep (1250 g of sandy loam/per pot; the soil moisture content was adjusted to 70% of the maximum water-holding capacity) and cultivated in a climatized chamber under specified light, moisture and temperature conditions (15 h white light, 70% atmospheric humidity, 23-19° C. day/night).
(§2) 14 days after the emergence of the barley plants 10 mg of imidacloprid per plant, dissolved in 100 ml water, were applied by means of a pipette to the soil around the base of the shoot. The same volume of water without any active compound was applied to the control pots. After the soil treatment the plants were no longer watered. At various times after application (0.25; 1; 6; 8; 11; 13; 15; 16 and 17 days) the leaves were harvested, quick-frozen in liquid nitrogen and stored at −80° C. until further treatment.
(§3) The labelled RNA probes for the DNA chip hybridization were produced according to the protocols (Expression Analysis, Technical Manual) of the Affymetrix company (Affymetrix Inc., 3380 Central Expressway, Santa Clara, Calif., USA). Whole RNA was first of all isolated from in each case 500 mg of the harvested leaves. 10 μg portions of whole RNA were used for the first and second strand cDNA synthesis. The cDNA was amplified with T7 polymerase and simultaneously labelled with biotin-UTP. 20 μg portions of this biotinylated cDNA were used for the hybridization of the barley genome array (Barleyl Gene Chip, Item no: 511012) from Affymetrix. This DNA microarray contains DNA sequences of 22840 genes composed of a total of 400000 EST (Expressed Sequence Tag) sequences. Then the DNA microarrays were washed in the Affymetrix Fluidics Station, stained with streptavidin/phycoerythrin (Molecular Probes, P/N S-866) and scanned with the Affymetrix Gene Chip Scanner 3000. The fluorescence data obtained were analyzed with the Microarray Suite 5 software from Affymetrix and the Expressionist Pro software from the GeneData company. After a quality check, all of the DNA chip analyses were stored in a database. Since the Affymetrix Gene Chip System is based on measuring the absolute expression values of the genes contained in the chip, the expression values of the biological replicates of treated and non-treated plants were averaged after normalization (median calculation). With the aid of the statistical ANOVA method, those genes were identified whose expression was increased in the plants treated with imidacloprid but remained relatively constant in the untreated controls. The assembly of gene groups from specific metabolic pathways, signal transduction chains or functions was carried out by a keyword search through the gene annotations supplied by Affymetrix and by linking the genes to their corresponding Gene Ontology Annotations (Gene Ontology Consortium).

[2] = tested on: Contig2210_at PATHOGENESIS-RELATED PROTEIN 1 PRECURSOR; assay: as above; conditions: 10 mg per plant to soil
Procedure: as §1, §2, §3

[3] = tested on: HV_CEb0020C01r2_at INTEGUMENTARY MUCIN B.1; assay: as above; conditions: 10 mg per plant to soil
Procedure: as §1, §2, §3

[4] = tested on: Contig17082_at TRYPSIN INHIBITOR; assay: as above; conditions: 10 mg per plant to soil
Procedure: as §1, §2, §3

[5] = tested on: Contig2212_s_at PATHOGENESIS-RELATED PROTEIN PRB1-3; assay: as above; conditions: 10 mg per plant to soil
Procedure: as §1, §2, §3

genes for PR proteins = assay: DNA chip expression analysis of barley leaves after soil treatment, gene group; conditions: treated plants compared with non-treated plants
Procedure: as §1, §2
The labelled RNA probes for the DNA chip hybridization were produced according to the protocols (Expression Analysis, Technical Manual) of the Affymetrix company (Affymetrix Inc., 3380 Central Expressway, Santa Clara, Calif., USA). Whole RNA was first of all isolated from in each case 500 mg of the harvested leaves. […] The fluorescence data obtained were analyzed with the Microarray Suite 5 software from Affymetrix and the Expressionist Pro software from the GeneData company. […]

O=[N+]([O-])/N=C1\NCCN1Cc1ccc(Cl)nc1 [imidacloprid]
Induction factor = Expression (treated)/Expression (untreated) ([1]; 0.25 d): 1.1
Median of the raw expression data, treated ([1]; 0.25 days): 60.34
Induction factor = Expression (treated)/Expression (untreated) ([1]; 1 d): 0.9
Median of the raw expression data, treated ([1]; 1 day): 55.96
Induction factor = Expression (treated)/Expression (untreated) ([1]; 6 d): 2.1
Median of the raw expression data, treated ([1]; 6 days): 146.82
Induction factor = Expression (treated)/Expression (untreated) ([1]; 8 d): 2.8
Median of the raw expression data, treated ([1]; 8 days): 181.30
Induction factor = Expression (treated)/Expression (untreated) ([1]; 11 d): 2.2
Median of the raw expression data, treated ([1]; 11 days): 125.79
Induction factor = Expression (treated)/Expression (untreated) ([1]; 13 d): 1.3
Median of the raw expression data, treated ([1]; 13 days): 55.42
Induction factor = Expression (treated)/Expression (untreated) ([1]; 15 d): 1.1
Median of the raw expression data, treated ([1]; 15 days): 57.66
Induction factor = Expression (treated)/Expression (untreated) ([1]; 16 d): 1.4
Median of the raw expression data, treated ([1]; 16 days): 88.69
Induction factor = Expression (treated)/Expression (untreated) ([1]; 17 d): 1.5
Median of the raw expression data, treated ([1]; 17 days): 87.06
Induction factor = Expression (treated)/Expression (untreated) ([2]; 0.25 d): 0.6
Median of the raw expression data, treated ([2]; 0.25 days): 143.08
Induction factor = Expression (treated)/Expression (untreated) ([2]; 1 d): 0.4
Median of the raw expression data, treated ([2]; 1 day): 78.12
Induction factor = Expression (treated)/Expression (untreated) ([2]; 6 d): 7.9
Median of the raw expression data, treated ([2]; 6 days): 6881.20
Induction factor = Expression (treated)/Expression (untreated) ([2]; 8 d): 8.8
Median of the raw expression data, treated ([2]; 8 days): 8961.17
Induction factor = Expression (treated)/Expression (untreated) ([2]; 11 d): 5.4
Median of the raw expression data, treated ([2]; 11 days): 7946.25
Induction factor = Expression (treated)/Expression (untreated) ([2]; 13 d): 3.6
Median of the raw expression data, treated ([2]; 13 days): 1553.93
Induction factor = Expression (treated)/Expression (untreated) ([2]; 15 d): 2.8
Median of the raw expression data, treated ([2]; 15 days): 1970.04
Induction factor = Expression (treated)/Expression (untreated) ([2]; 16 d): 2.4
Median of the raw expression data, treated ([2]; 16 days): 2013.49
Induction factor = Expression (treated)/Expression (untreated) ([2]; 17 d): 0.7
Median of the raw expression data, treated ([2]; 17 days): 1121.55
Induction factor = Expression (treated)/Expression (untreated) ([3]; 0.25 d): 1.4
Median of the raw expression data, treated ([3]; 0.25 days): 96.81
Induction factor = Expression (treated)/Expression (untreated) ([3]; 1 d): 0.9
Median of the raw expression data, treated ([3]; 1 day): 87.44
Induction factor = Expression (treated)/Expression (untreated) ([3]; 6 d): 4.3
Median of the raw expression data, treated ([3]; 6 days): 418.12
Induction factor = Expression (treated)/Expression (untreated) ([3]; 8 d): 2.8
Median of the raw expression data, treated ([3]; 8 days): 428.35
Induction factor = Expression (treated)/Expression (untreated) ([3]; 11 d): 2.2
Median of the raw expression data, treated ([3]; 11 days): 389.74
Induction factor = Expression (treated)/Expression (untreated) ([3]; 13 d): 1.7
Median of the raw expression data, treated ([3]; 13 days): 180.00
Induction factor = Expression (treated)/Expression (untreated) ([3]; 15 d): 1.0
Median of the raw expression data, treated ([3]; 15 days): 170.35
Induction factor = Expression (treated)/Expression (untreated) ([3]; 16 d): 1.2
Median of the raw expression data, treated ([3]; 16 days): 161.77
Induction factor = Expression (treated)/Expression (untreated) ([3]; 17 d): 0.6
Median of the raw expression data, treated ([3]; 17 days): 106.72
Induction factor = Expression (treated)/Expression (untreated) ([4]; 0.25 d): 0.9
Median of the raw expression data, treated ([4]; 0.25 days): 161.42
Induction factor = Expression (treated)/Expression (untreated) ([4]; 1 d): 1.1
Median of the raw expression data, treated ([4]; 1 day): 162.50
Induction factor = Expression (treated)/Expression (untreated) ([4]; 6 d): 3.8
Median of the raw expression data, treated ([4]; 6 days): 745.06
Induction factor = Expression (treated)/Expression (untreated) ([4]; 8 d): 3.7
Median of the raw expression data, treated ([4]; 8 days): 853.21
Induction factor = Expression (treated)/Expression (untreated) ([4]; 11 d): 3.6
Median of the raw expression data, treated ([4]; 11 days): 911.63
Induction factor = Expression (treated)/Expression (untreated) ([4]; 13 d): 2.2
Median of the raw expression data, treated ([4]; 13 days): 281.55
Induction factor = Expression (treated)/Expression (untreated) ([4]; 15 d): 1.5
Median of the raw expression data, treated ([4]; 15 days): 209.34
Induction factor = Expression (treated)/Expression (untreated) ([4]; 16 d): 1.6
Median of the raw expression data, treated ([4]; 16 days): 276.41
Induction factor = Expression (treated)/Expression (untreated) ([4]; 17 d): 1.1
Median of the raw expression data, treated ([4]; 17 days): 225.25
Induction factor = Expression (treated)/Expression (untreated) ([5]; 0.25 d): 0.9
Median of the raw expression data, treated ([5]; 0.25 days): 153.25
Induction factor = Expression (treated)/Expression (untreated) ([5]; 1 d): 0.9
Median of the raw expression data, treated ([5]; 1 day): 135.85
Induction factor = Expression (treated)/Expression (untreated) ([5]; 6 d): 9.6
Median of the raw expression data, treated ([5]; 6 days): 3508.08
Induction factor = Expression (treated)/Expression (untreated) ([5]; 8 d): 10.3
Median of the raw expression data, treated ([5]; 8 days): 3936.08
Induction factor = Expression (treated)/Expression (untreated) ([5]; 11 d): 9.0
Median of the raw expression data, treated ([5]; 11 days): 3866.40
Induction factor = Expression (treated)/Expression (untreated) ([5]; 13 d): 3.7
Median of the raw expression data, treated ([5]; 13 days): 470.29
Induction factor = Expression (treated)/Expression (untreated) ([5]; 15 d): 2.3
Median of the raw expression data, treated ([5]; 15 days): 378.35
Induction factor = Expression (treated)/Expression (untreated) ([5]; 16 d): 2.4
Median of the raw expression data, treated ([5]; 16 days): 756.91
Induction factor = Expression (treated)/Expression (untreated) ([5]; 17 d): 0.7
Median of the raw expression data, treated ([5]; 17 days): 376.36
expression of genes for PR proteins (genes for PR proteins): increased expression; also recorded: powerful induction
